Where “and” joins values, the source holds several entries; their conditions need not be identical. Equal values may be shown once. Read-outs that look alike come from different tables or passages of the source. Marks after values point to notes of the source that are not given here.
Assays:
VCaP = test: PCa cell viability proliferation screening (MTS), VCaP; type: cell-based; conditions: Homo sapiens, 168 h, AR positive, seven days
Experimental: (§1) VCaP (4 × 10^4 cells/well) were seeded in 96-well plates in DMEM media supplemented with 10% fetal bovine serum (FBS), penicillin, streptomycin, and sodium pyruvate. 22Rv1 cells (2 × 10^3 cells/well) and LAPC-4 cells (6 × 10^3 cells/well) were seeded in 96-well plates in RPMI media supplemented with 10% FBS, penicillin, streptomycin, and sodium pyruvate. The cells were incubated at 37 °C in a 5% CO2 humidified atmosphere for 24 h before treatment with multiple concentrations of RM-581 dissolved in dimethyl sulfoxide (DMSO). The concentrations used were between 0.01 μM and 50 μM. Treatment lasted for 3 days for all the cell lines except VCaP cells, which were treated for 7 days due to slower proliferation rates. At the end of the assay, 20 μL of MTS (Cell Titer 96 Aqueous, Promega, Nepean, ON, Canada) were added to each well, and the mixture was incubated for 4 h at 37 °C. The plates were subsequently analyzed at 490 nm using a Tecan M-200 microplate reader (Männedorf, Switzerland).

LAPC-4 = test: PCa cell viability proliferation screening (MTS), LAPC-4; type: cell-based; conditions: Homo sapiens, LAPC4, 72 h, LAPC-4, AR positive, three days
Experimental: as §1

LAPC-4 cells [1] = test: LAPC-4 cell viability proliferation and combination index assays (MTS, 6 days); type: cell-based, human
Experimental: LAPC-4 cells (1 × 10^4 cells/well) were seeded in triplicate in 96-well plates in IMDM (Iscove’s modified Dulbecco’s medium) (90 μL) supplemented (v/v) with 5% fetal FBS, 1% L-glutamine, 1% insulin, and 1% penicillin/streptomycin. The cells were incubated at 37 °C in a 5% CO2 humidified atmosphere for 24 h. […] After 6 days of incubation, the cell proliferation was determined by adding 10 µL of MTS followed by incubation at 37 °C for 4 h. Plates were then analyzed at 490 nm using a Tecan M-200 microplate reader (Männedorf, Switzerland). Using GraphPad Prism 7 software, the IC50 values were calculated. The values represent the average of two independent experiments performed in triplicate. According to the Chou–Talalay method and using the following formula, the CI (combination) was calculated. CI=(D)1/(DX)1+(D)2/(DX)2
Denominators (DX)l and (DX)2 are the doses of individual drugs required to achieve a given effect level, and numerators (D)1 and (D)2 are the concentrations of each drug present in combination to trigger the same effect level. When the drugs interact additively, CI = 1, but a CI < 1 indicates a synergistic interaction, and a CI > 1 indicates an antagonistic effect.

LAPC-4 cells [2] = test: Apoptosis characterization by flow cytometry (annexin-V/PI); type: cell-based, human; conditions: 72 h
Experimental: This experiment was performed with LAPC-4 cells (3 × 10^5) following the protocol previously reported for PC-3 cells. After the detection of annexin-V and propidium iodide fluorescence, dual parametric dot plots allowed us to calculate the percentage of each cell type: (1) non-apoptotic live cells (annexin-V-negative/PI-negative) in the lower left quadrant; (2) early apoptotic cells (annexin-V-positive/PI-negative) in the lower right quadrant; (3) late apoptotic cells (annexin-V-positive/PI-positive) in the upper right quadrant; and (4) necrotic cells (annexin-V-negative/PI-positive) in the upper left quadrant.

LAPC-4 cells [3] = test: Gene expression study by qPCR; type: cell-based, human; conditions: RM-581 5 µM or atorvastatin 10 µM, CTL fixed at 1.0
Experimental: LAPC-4 cells (3 × 10^5) were treated with RM-581 (1, 2, and 5 µM) at different times (6, 18, 24, and 36 h) and the expression of various genes was determined as previously reported. Primer sequences used for the analysis of each gene are reported in Table S3 (Supplementary Materials).

LAPC-4 cells [4] = test: Total cholesterol in LAPC-4 cells (kit); type: cell-based, human; conditions: RM-581 2 μM or atorvastatin 10 μM; for Total cholesterol concentration in LAPC-4 cells: Table S2
Experimental: A cholesterol quantification kit provided by Sigma-Aldrich (Catalog Number MAK043) was used following the manufacturer’s instructions to determine the concentration of total cholesterol, free cholesterol, and cholesteryl ester in samples. The cholesterol contents were measured in samples from two different protocols. […] Secondly, in tumor, liver, and plasma obtained at the end of the LAPC-4 xenograft experiment (control group and the group treated with RM-581 at 10 mg/kg/PO).

DU-145 = test system: DU-145; set-up: method as in PMID 34681843; conditions: DU-145, AR negative, three days, MTS; cited from earlier work
PC-3 = test system: PC-3; set-up: method as in PMID 34681843; conditions: PC-3, AR negative, three days, MTS; cited from earlier work

Structure (SMILES): C#C[C@]1(O)CC[C@H]2[C@@H]3CCc4cc(OC)c(N5CCN(C(=O)[C@@H]6CCCN6C(=O)c6ccc7ccccc7n6)CC5)cc4[C@H]3CC[C@@]21C [RM-581]
- IC50 (VCaP): 5.78 µM
- IC50 (LAPC-4): 0.56 µM
- IC50 (LAPC-4 cells [1]; Homo sapiens, LAPC4, 144 h, LAPC-4, six days of treatment, read-out: IC50, single experiments (Figure 2A)): 0.45 µM
- IC50 (LAPC-4 cells [1]; Homo sapiens, LAPC4, 144 h, LAPC-4, six days, slightly different culture conditions, read-out: IC50, single experiments (Figure 3)): 0.51 µM
- IC50 (LAPC-4 cells [1]; Homo sapiens, LAPC4, 144 h, LAPC-4, six days, slightly different culture conditions, read-out: Mean IC50 (Figure 3)): 0.57 ± 0.14 µM
- IC50 (LAPC-4 cells [1]; Homo sapiens, LAPC4, 144 h, LAPC-4, six days, single drugs and 1:1 combinations, read-out: IC50 (Figure 2B)): 0.56 µM
- IC50 (LAPC-4 cells [1]; Homo sapiens, LAPC4, LAPC-4, read-out: IC50 in LAPC-4 cells, approximate summary value): ~0.5 µM
- IC50 (LAPC-4 cells [1]; LAPC-4, six days of treatment, read-out: IC50, single experiments (Figure 2A)): 0.3 µM and 0.55 µM
- IC50 (LAPC-4 cells [1]; LAPC-4, six days, slightly different culture conditions, read-out: IC50, single experiments (Figure 3)): 0.47 µM and 0.73 µM
- early and late apoptotic cells (LAPC-4 cells [2]; 2 to 50 µM): significant and increasing proportion
- necrotic cells (LAPC-4 cells [2]; 30 and 50 µM): very low and non-significant
- viable cells (LAPC-4 cells [2]; 30 and 50 µM, dropped from 92%): 20%
- ACAT1 mRNA expression (LAPC-4 cells [3]; 6 h): 0.7 *
- ACLY mRNA expression (LAPC-4 cells [3]; 6 h): 0.8
- FASN mRNA expression (LAPC-4 cells [3]; 6 h): 1.0
- HMGCR mRNA expression (LAPC-4 cells [3]; 6 h): 1.9 **
- HMGCS1 mRNA expression (LAPC-4 cells [3]; 6 h): 2.7 **
- LDLR mRNA expression (LAPC-4 cells [3]; 6 h): 1.4
- MVD mRNA expression (LAPC-4 cells [3]; 6 h): 2.7 **
- MVK mRNA expression (LAPC-4 cells [3]; 6 h): 1.2
- SCD1 mRNA expression (LAPC-4 cells [3]; 6 h): 0.7
- ACAT1 mRNA expression (LAPC-4 cells [3]; 18 h): 0.9
- ACLY mRNA expression (LAPC-4 cells [3]; 18 h): 0.4 **
- FASN mRNA expression (LAPC-4 cells [3]; 18 h): 0.5 **
- HMGCR mRNA expression (LAPC-4 cells [3]; 18 h): 1.2
- HMGCS1 mRNA expression (LAPC-4 cells [3]; 18 h): 3.3 **
- LDLR mRNA expression (LAPC-4 cells [3]; 18 h): 1.8 **
- MVD mRNA expression (LAPC-4 cells [3]; 18 h): 1.8 **
- MVK mRNA expression (LAPC-4 cells [3]; 18 h): 1.6
- SCD1 mRNA expression (LAPC-4 cells [3]; 18 h): 0.8
- ACAT1 mRNA expression (LAPC-4 cells [3]; 24 h): 1.1
- ACLY mRNA expression (LAPC-4 cells [3]; 24 h): 0.9
- FASN mRNA expression (LAPC-4 cells [3]; 24 h): 0.6 *
- HMGCR mRNA expression (LAPC-4 cells [3]; 24 h): 2.6 **
- HMGCS1 mRNA expression (LAPC-4 cells [3]; 24 h): 2.4 **
- LDLR mRNA expression (LAPC-4 cells [3]; 24 h): 2.6 **
- MVD mRNA expression (LAPC-4 cells [3]; 24 h): 2.1 **
- MVK mRNA expression (LAPC-4 cells [3]; 24 h): 1.0
- SCD1 mRNA expression (LAPC-4 cells [3]; 24 h): 2.5 **
- ACAT1 mRNA expression (LAPC-4 cells [3]; 36 h): 1.2
- ACLY mRNA expression (LAPC-4 cells [3]; 36 h): 0.9
- FASN mRNA expression (LAPC-4 cells [3]; 36 h): 0.6 *
- HMGCR mRNA expression (LAPC-4 cells [3]; 36 h): 2.5 **
- HMGCS1 mRNA expression (LAPC-4 cells [3]; 36 h): 2.0 **
- LDLR mRNA expression (LAPC-4 cells [3]; 36 h): 2.5 **
- MVD mRNA expression (LAPC-4 cells [3]; 36 h): 1.6 **
- MVK mRNA expression (LAPC-4 cells [3]; 36 h): 1.0
- SCD1 mRNA expression (LAPC-4 cells [3]; 36 h): 3.5 **
- Total cholesterol in LAPC-4 cells vs untreated cells (LAPC-4 cells [4]; 18, 36, or 72 h): did not show a significant difference
- Total cholesterol concentration in LAPC-4 cells (LAPC-4 cells [4]; 18 h): 68 ± 3
- Total cholesterol concentration in LAPC-4 cells (LAPC-4 cells [4]; 36 h): 69 ± 6
- Total cholesterol concentration in LAPC-4 cells (LAPC-4 cells [4]; 72 h (first line, control 66 ± 2)): 69 ± 4
- IC50 (DU-145): 4.4 µM
- IC50 (PC-3): 1.2 µM

Source: paper PMC10252594 (Cancers, 2023)
